The subject of one assay is peritoneal macrophages. In words: TLR agonist-induced cytokine production (ELISA) in peritoneal macrophages pretreated with Rac1 inhibitor. In kind it is cell-based, mouse. Here is the method:
Immunoblot analysis of NF-κB and mitogen-activated protein kinase (MAPK) signaling molecules was performed with WT and Plxna4^−/− peritoneal macrophages left untreated (0) or treated for 15, 30 or 60 min with 1 μg/ml ultrapure LPS (FIG. 3A). FIG. 3B and FIG. 3C show chromatin immunoprecipitation (ChIP) assays of the binding of p65 or c-Jun at the promoter regions of Tnfa and Il6 gene in WT and Plxna4^−/− peritoneal macrophages left untreated or treated with 10 μg/ml poly(I:C), 1 μg/ml ultrapure LPS (B), 5 μg/ml Pam3Cys or 4 μg/ml CpG (C) for 1 h. Cells were left untreated (0) or treated for 15 or 30 min with 1 μg/ml ultrapure LPS. Rac1, Cdc42 and RhoA pull-down analysis were performed as described in the Examples section. Total Rac1, Cdc42 and RhoA in cell lysate were used as controls. […] Protein levels of TNF-α and IL-6 were measured by ELISA. The results shown are representative of three independent experiments and are expressed as mean±s.d. * P<0.05 compared to WT peritoneal macrophages without NSC23766 pretreatment.
Total peritoneal cells were harvested from the peritoneal cavities of naïve WT or Plxna4^−/− mice with two 10 ml cold sterile PBS wash. […] The remaining cells were thoroughly washed with PBS and counted in a hemocytometer. Cytospins were prepared and stained with Diff-Quik solutions, and the number of peritoneal macrophages was determined. […]
(§1) Cytokines generated by in vitro cultured peritoneal macrophages were quantified using the ELISA Set for mouse TNF-α or IL-6 (BD Biosciences) and mouse IFN-β ELISA Kit (PBL InterferonSource). For the in vivo experiments, concentrations of TNF-α, IL-1β, IL-6, IL-12p70, CCL2 and CCL3 were measured in cell-free peritoneal lavage fluid, serum, and lung homogenate using a Customized Mouse Cytokine 6-plex Panel (BioLegend) and a Luminex Bio-Plex 200 system (Bio-Rad Laboratories). […]

For assay [1], the system named is WT and Plxna4−/− mice. In words: Survival after experimental sepsis induced by CLP. The conditions noted are these: 25 μg/kg 1 h prior to CLP. In kind it is in vivo. Here is the method:
(§2) WT and Plxna4^−/− peritoneal macrophages were stimulated with LPS (1 μg/ml) for 4 h in the absence or presence of either Sema3A-Fc or Sema6A-Fc fusion proteins (20 or 100 μg/ml) (FIG. 7A and FIG. 7B). Messenger RNA (FIG. 7A) or protein (FIG. 7B) levels of TNF-α and IL-6 were measured by RT-PCR and ELISA, respectively. The IgG Fc fragment (100 μg/ml) was used as a negative control. WT and Plxna4^−/− mice (n=7˜9 per group) were pretreated with either Sema3A-Fc or IgG Fc control proteins at a dosage of 25 μg per kg body weight 1 h prior to CLP procedure (FIG. 7C). Survival rate was monitored for 5 days. τP<0.05 compared with WT mice pretreated with Sema3A-Fc. […] Inflammatory cytokines in peritoneal lavage collected 4 h after CLP were determined by ELISA. * P<0.05 compared to peritoneal lavage from WT mice pretreated with Sema3A-Fc (FIG. 7E). […] Inflammatory cytokines in peritoneal lavage collected 4 h after CLP were determined by ELISA. *P<0.05 compared with peritoneal lavage from WT mice pretreated with Sema3A-Fc (FIG. 7G).
CLP surgery was performed on mice as previously described with minor modifications (Wen et al., 2008). […] For survival studies, mice subjected to surgery were monitored for 5 days. […] Colonies were counted and expressed as CFU/ml. […]
We next assessed if Sema3A engagement of plexin-A4 could synergistically exacerbate CLP-induced septic inflammation. […]

The target of another assay is T1, Rac1 (Mus musculus, UniProt P63001).
T1 construct: endogenous in cells; host or cells: primary mouse peritoneal macrophages (WT, Plxna4-/-)
Kind of assay: Detection of GTP-bound Rac1 (pull-down) in macrophages. In kind it is cell-based. Here is the method: The assays for GTP-bound Rac1, Cdc42 and RhoA were performed as described (Noren et al., 2000). Briefly, peritoneal macrophages were stimulated with 1 μg/ml LPS for various time periods. Cells were lysed and GTP-bound Rac1 and Cdc42 were affinity precipitated using Rac1/Cdc42-binding domain of PAK (PBD) fused with GST. GTP-bound RhoA was affinity precipitated using RhoA-binding domain of rhotekin (RBD) fused with GST. Bound proteins were resolved on a NuPAGE® (SDS PAGE) gel and were transferred onto nitrocellulose membranes. Membranes were immunoblotted with the appropriate primary antibodies against Rac1, Cdc42 or RhoA.
To assess a converging point for TLR and plexin-A4, we assayed for GTP-bound Rac1.

Assay [2] concerns WT and Plxna4−/− mice. In words: Inflammatory cytokines in peritoneal lavage after CLP (ELISA). In kind it is in vivo. The conditions noted are these: 25 μg/kg 1 h prior to CLP, 4 h after CLP, versus IgG Fc-treated controls. The method, then: as §2
Cytokines generated by in vitro cultured peritoneal macrophages were quantified using the ELISA Set for mouse TNF-α or IL-6 (BD Biosciences) and mouse IFN-β ELISA Kit (PBL InterferonSource). […]
CLP surgery was performed on mice as previously described with minor modifications (Wen et al., 2008). […] For survival studies, mice subjected to surgery were monitored for 5 days. […]
Background: ELISA stands for enzyme-linked immunosorbent assay.

Assay [3] has as its system WT or Plxna4−/− peritoneal macrophages. Kind of assay: TNF-α and IL-6 production (RT-PCR, ELISA) in peritoneal macrophages stimulated with Sema3A-Fc or Sema6A-Fc in the absence or presence of LPS. Format: cell-based, mouse. The method, then: Messenger RNA (FIG. 7A) or protein (FIG. 7B) levels of TNF-α and IL-6 were measured by RT-PCR and ELISA, respectively. The IgG Fc fragment (100 μg/ml) was used as a negative control. WT and Plxna4^−/− mice (n=7˜9 per group) were pretreated with either Sema3A-Fc or IgG Fc control proteins at a dosage of 25 μg per kg body weight 1 h prior to CLP procedure (FIG. 7C). Survival rate was monitored for 5 days. τP<0.05 compared with WT mice pretreated with Sema3A-Fc. WT mice (n=4 per group) were pretreated with either Sema3A-Fc or IgG Fc control proteins, followed by CLP surgery (FIG. 7D). Inflammatory cytokines in peritoneal lavage collected 4 h after CLP were determined by ELISA. * P<0.05 compared to peritoneal lavage from WT mice pretreated with Sema3A-Fc (FIG. 7E). […] WT and Plxna4^−/− mice (n=4 per group experiment) were pretreated with either Sema3A-Fc or IgG Fc control proteins at a dosage of 25 ug/kg body weight 1 hour before CLP procedure. Inflammatory cytokines in peritoneal lavage collected 4 h after CLP were determined by ELISA. *P<0.05 compared with peritoneal lavage from WT mice pretreated with Sema3A-Fc (FIG. 7G).
Total peritoneal cells were harvested from the peritoneal cavities of naïve WT or Plxna4^−/− mice with two 10 ml cold sterile PBS wash. Lavage was pooled for mice in the same group. RBCs were lysed in ammonium chloride buffer (150 mM NH4CL, 10 mM NaHCO3, 1 mM EDTA-tetrasodium). The remaining cells were thoroughly washed with PBS and counted in a hemocytometer. Cytospins were prepared and stained with Diff-Quik solutions, and the number of peritoneal macrophages was determined. […]
as §1

Entries after “also recorded” stand apart in the source; their conditions may differ.

Take `CCN(CC)CCCC(C)Nc1nc(C)cc(Nc2ccc3nc(C)cc(N)c3c2)n1` (stereo not drawn) [NSC23766]: the cytokine production entry with peritoneal macrophages (TLR-activated Plxna4−/− macrophages, NSC23766 pretreatment) is reported as “no inhibitory effect”. In addition, the IFN-β production entry in the assay on peritoneal macrophages (WT macrophages, Rac1 inhibition) is on record as “not affected”. Moreover, the “TNF-α and IL-6 production” value with peritoneal macrophages (WT peritoneal macrophages, NSC23766 200 μM pretreatment 1 h, various TLR agonists 4 h, ELISA) is reported as “significantly attenuate”.

For “Sema3A: Recombinant human Sema3A-Fc (1250-S3, R&D); chimeric protein of human IgG1 Fc fragment fused to Sema3A; plexin-A4 ligand”, the survival rate entry with WT and Plxna4−/− mice [1] is reported as “did not affect”. Also, the “Rac1 activation (GTP-bound Rac1)” value is recorded as “neither Sema3A nor LPS activated; also recorded: attenuated” in the assay with Rac1 (Myd88−/− macrophages); “not observed” in the assay with Rac1 (Plxna4−/− macrophages); “enhanced this activation” with Rac1 (WT macrophages, LPS and Sema3A together); “resulted in Rac1 activation” with Rac1 (WT macrophages, single stimulus). In addition, the “levels of inflammatory cytokines in peritoneal lavage” value in the assay with WT and Plxna4−/− mice [2] is reported as “significantly higher levels”. Besides, the “LPS-induced TNF-α and IL-6 production (enhancement in LPS-responsiveness)” value in assay [3] (Plxna4−/− macrophages) is reported as “completely abolished”. Further, the “LPS-induced TNF-α and IL-6 production” value in assay [3] (WT peritoneal macrophages, suboptimal LPS, fusion proteins 20 or 100 μg/ml) was “enhanced”. Further, the “TNF-α and IL-6 production” value in assay [3] (semaphorin alone, absence of LPS, macrophages) is on record as “Neither Sema3A nor Sema6A alone induced; also recorded: failed to induce cytokine production”.

The values above are taken from US8871205B2, “Methods and compositions for the treatment of immune disorders” (The University of North Carolina at Chapel Hill, priority 2009, dated 2014).
